Laboratory results reported in ChEMBL document CHEMBL1127579, “Novel, potent luteinizing hormone-releasing hormone antagonists with improved solubility in water” (1994).
≈ marks a conversion by molar mass, not a printed value.

Assays:
Assay type in all cases: functional
[1] = species on record: Rattus norvegicus; experiment: Antiovulatory activity expressed as ratio of rats ovulated/total rats at a dose of 0.5 microg; 7/7
[2] = species on record: Rattus norvegicus; experiment: Antiovulatory activity expressed as ratio of rats ovulated/total rats at a dose of 0.5 microg; 2/9
[3] = species on record: Rattus norvegicus; experiment: Evaluated for histamine releasing activity
[4] = species on record: Rattus norvegicus; experiment: Antiovulatory activity expressed as ratio of rats ovulated/total rats at a dose of 1.0 ug; […]
[5] = species on record: Rattus norvegicus; experiment: Antiovulatory activity expressed as ratio of rats ovulated/total rats at a dose of 0.5 microg; 6/6
[6] = species on record: Rattus norvegicus; experiment: Antiovulatory activity expressed as ratio of rats ovulated/total rats at a dose of 0.5 microg; 2/6
[7] = species on record: Rattus norvegicus; experiment: Antiovulatory activity expressed as ratio of rats ovulated/total rats at a dose of 0.5 microg; 5/5
[8] = species on record: Rattus norvegicus; experiment: Antiovulatory activity expressed as ratio of rats ovulated/total rats at a dose of 0.5 microg; 4/6
[9] = species on record: Rattus norvegicus; experiment: Antiovulatory activity expressed as ratio of rats ovulated/total rats at a dose of 1.0 ug
[10] = species on record: Rattus norvegicus; experiment: Antiovulatory activity expressed as ratio of rats ovulated/total rats at a dose of 0.5 microg; 0/8
[11] = species on record: Rattus norvegicus; experiment: Antiovulatory activity expressed as ratio of rats ovulated/total rats at a dose of 0.25 microg; 6/8
[12] = species on record: Rattus norvegicus; experiment: Antiovulatory activity expressed as ratio of rats ovulated/total rats at a dose of 1.0 ug; 1/6
[13] = species on record: Rattus norvegicus; experiment: Antiovulatory activity expressed as ratio of rats ovulated/total rats at a dose of 0.5 microg; 3/13
[14] = species on record: Rattus norvegicus; experiment: Antiovulatory activity expressed as ratio of rats ovulated/total rats at a dose of 0.5 microg; 5/6
[15] = species on record: Rattus norvegicus; experiment: Antiovulatory activity expressed as ratio of rats ovulated/total rats at a dose of 0.5 microg; 3/5

With `CC(=O)N[C@H](Cc1ccc2ccccc2c1)C(=O)N[C@H](Cc1ccc(Cl)cc1)C(=O)N[C@H](Cc1cccnc1)C(=O)N[C@@H](CO)C(=O)N[C@@H](CCCCNC(=O)c1cccc(N)n1)C(=O)N[C@H](CCCCNC(=O)c1cccc(N)n1)C(=O)N[C@@H](CC(C)C)C(=O)N[C@@H](CCCCNC(C)C)C(=O)N1CCC[C@H]1C(=O)N[C@H](C)C(=O)O` the “Number of rats ovulated” value [1] was 7.
For `CC(=O)N[C@H](Cc1ccc2ccccc2c1)C(=O)N[C@H](Cc1ccc(Cl)cc1)C(=O)N[C@H](Cc1cccnc1)C(=O)N[C@@H](CO)C(=O)N[C@@H](CCCCNC(=O)c1ccc(N)nc1)C(=O)N[C@H](CCCCNC(=O)c1ccc(N)nc1)C(=O)N[C@@H](CC(C)C)C(=O)N[C@@H](CCCCNC(C)C)C(=O)N1CCC[C@H]1C(=O)N[C@H](C)C(=O)O`, the “Number of rats ovulated” value [1] was 7.
`CC(=O)N[C@H](Cc1ccc2ccccc2c1)C(=O)N[C@H](Cc1ccc(Cl)cc1)C(=O)N[C@H](Cc1cccnc1)C(=O)N[C@@H](CO)C(=O)N[C@@H](CCCCNC(=O)c1cccnc1)C(=O)N[C@H](CCCCNC(=O)c1cnccn1)C(=O)N[C@@H](CC(C)C)C(=O)N[C@@H](CCCCN)C(=O)N1CCC[C@H]1C(=O)N[C@H](C)C(=O)O` showed a Ratio [2] of 2, an ED50 [3] of 263 µg/mL (≈ 170 µM) and a Ratio [4] of 1.
For `CC(=O)N[C@H](Cc1ccc2ccccc2c1)C(=O)N[C@H](Cc1ccc(Cl)cc1)C(=O)N[C@H](Cc1cccnc1)C(=O)N[C@@H](CO)C(=O)N[C@@H](CCCCNC(=O)c1ccc(N)nc1)C(=O)N[C@H](CCCCNC(=O)c1ccc(N)nc1)C(=O)N[C@@H](CC(C)C)C(=O)N[C@@H](CCCN=C(N)N)C(=O)N1CCC[C@H]1C(=O)N[C@H](C)C(=O)O`, the “Number of rats ovulated” value [5] was 6.
Molecule `CC(=O)N[C@H](Cc1ccc2ccccc2c1)C(=O)N[C@H](Cc1ccc(Cl)cc1)C(=O)N[C@H](Cc1cccnc1)C(=O)N[C@@H](CO)C(=O)N[C@@H](CCCCNC(=O)c1ccccn1)C(=O)N[C@H](CCCCNC(=O)c1cccc(N)n1)C(=O)N[C@@H](CC(C)C)C(=O)N[C@@H](CCCN=C(N)N)C(=O)N1CCC[C@H]1C(=O)N[C@H](C)C(=O)O` has a Ratio [6] of 2.
With `CC(C)C[C@H](NC(=O)[C@@H](CCCCNC(=O)c1ccc(N)nc1)NC(=O)[C@H](CCCCNC(=O)c1ccccn1)NC(=O)[C@@H](NC(=O)[C@@H](Cc1cccnc1)NC(=O)[C@@H](Cc1ccc(Cl)cc1)NC(=O)[C@H](N)Cc1ccc2ccccc2c1)[C@@H](C)O)C(=O)N[C@@H](CCCN=C(N)N)C(=O)N1CCC[C@H]1C(=O)N[C@H](C)C(=O)O` the Ratio [7] was 5.
In the case of `C[C@@H](NC(=O)[C@@H]1CCCN1C(=O)[C@H](CCCN=C(N)N)NC(=O)[C@H](Cc1c[nH]cn1)NC(=O)[C@@H](CCCCNC(=O)c1ccc(N)nc1)NC(=O)[C@H](CCCCNC(=O)c1ccccn1)NC(=O)[C@H](CO)NC(=O)[C@@H](Cc1cccnc1)NC(=O)[C@@H](Cc1ccc(Cl)cc1)NC(=O)[C@H](N)Cc1ccc2ccccc2c1)C(=O)O`, the “Number of rats ovulated” value [5] is reported as 6.
`CC(=O)N[C@H](Cc1ccc2ccccc2c1)C(=O)N[C@H](Cc1ccc(Cl)cc1)C(=O)N[C@H](Cc1cccnc1)C(=O)N[C@@H](CO)C(=O)N[C@@H](CCCCNC(=O)c1ccccn1)C(=O)N[C@H](CCCCNC(=O)c1ncccc1N)C(=O)N[C@@H](CC(C)C)C(=O)N[C@@H](CCCCNC(C)C)C(=O)N1CCC[C@H]1C(=O)N[C@H](C)C(=O)O` showed a Ratio [8] of 4.
`CC(=O)N[C@H](Cc1cnc2ccccc2c1)C(=O)N[C@H](Cc1ccc(Cl)cc1)C(=O)N[C@H](Cc1cccnc1)C(=O)N[C@@H](CO)C(=O)N[C@@H](CCCNC(=O)c1cnccn1)C(=O)N[C@H](CCCNC(=O)c1ccc(N)nc1)C(=O)N[C@@H](CC(C)C)C(=O)N[C@@H](CCCN=C(N)N)C(=O)N1CCC[C@H]1C(=O)N[C@H](C)C(=O)O` was tested, and the Ratio [7] was 5.
With `CNC[C@@H](NC(=O)[C@@H]1CCCN1C(=O)[C@H](CCCN=C(N)N)NC(=O)[C@H](CC(C)C)NC(=O)[C@@H](CCCCNC(=O)c1ccc(N)nc1)NC(=O)[C@H](CCCCNC(=O)c1ccccn1)NC(=O)[C@H](CO)NC(=O)[C@@H](Cc1cccnc1)NC(=O)[C@@H](Cc1ccc(Cl)cc1)NC(=O)[C@H](N)Cc1ccc2ccccc2c1)C(=O)O` the Ratio [9] was 0, the Ratio [10] was 0 and the Ratio [11] was 6. The ED50 [3] was 31 µg/mL (≈ 19.6 µM).
For `CC(=O)N[C@H](Cc1ccc2ccccc2c1)C(=O)N[C@H](Cc1ccc(Cl)cc1)C(=O)N[C@H](Cc1cccnc1)C(=O)N[C@@H](CO)C(=O)N[C@@H](CCCCNC(=O)c1cnccn1)C(=O)N[C@H](CCCCNC(=O)c1cccnc1)C(=O)N[C@@H](CC(C)C)C(=O)N[C@@H](CCCCN)C(=O)N1CCC[C@H]1C(=O)N[C@H](C)C(=O)O`, the “Number of rats ovulated” value [5] was 6.
For `CC(=O)N[C@H](Cc1ccc2ccccc2c1)C(=O)N[C@H](Cc1ccc(Cl)cc1)C(=O)N[C@H](Cc1cccnc1)C(=O)N[C@@H](CO)C(=O)N[C@@H](CCCCNC(=O)c1cccnc1N)C(=O)N[C@H](CCCCNC(=O)c1cccnc1N)C(=O)N[C@@H](CC(C)C)C(=O)N[C@@H](CCCN=C(N)N)C(=O)N1CCC[C@H]1C(=O)N[C@H](C)C(=O)O`, the “Number of rats ovulated” value [5] was 6.
With `CC(=O)N[C@H](Cc1ccc2ccccc2c1)C(=O)N[C@H](Cc1ccc(Cl)cc1)C(=O)N[C@H](Cc1cccnc1)C(=O)N[C@@H](CO)C(=O)N[C@@H](CCCCNC(=O)c1ccccn1)C(=O)N[C@H](CCCCNC(=O)c1cccnc1N)C(=O)N[C@@H](CC(C)C)C(=O)N[C@@H](CCCN=C(N)N)C(=O)N1CCC[C@H]1C(=O)N[C@H](C)C(=O)O` the “Number of rats ovulated” value [1] was 7.
Molecule `CC(=O)N[C@H](Cc1ccc2ccccc2c1)C(=O)N[C@H](Cc1ccc(Cl)cc1)C(=O)N[C@H](Cc1cccnc1)C(=O)N[C@@H](CO)C(=O)N[C@@H](CCCCNC(=O)c1ccccn1)C(=O)N[C@H](CCCNC(=O)c1ccc(N)nc1)C(=O)N[C@@H](CC(C)C)C(=O)N[C@@H](CCCN=C(N)N)C(=O)N1CCC[C@H]1C(=O)N[C@H](C)C(=O)O` has a Ratio [9] of 0, a Ratio [10] of 0 and a Ratio [11] of 6. For the same molecule, the ED50 [3] was 100 µg/mL (≈ 63.3 µM).
For `CC(=O)N[C@H](Cc1ccc2ccccc2c1)C(=O)N[C@H](Cc1ccc(Cl)cc1)C(=O)N[C@H](Cc1cccnc1)C(=O)N[C@@H](CO)C(=O)N[C@@H](CCCCNC(=O)c1cccnc1N)C(=O)N[C@H](CCCCNC(=O)c1cccnc1N)C(=O)N[C@@H](CC(C)C)C(=O)N[C@@H](CCCCNC(C)C)C(=O)N1CCC[C@H]1C(=O)N[C@H](C)C(=O)O`, the “Number of rats ovulated” value [1] was 7.
`CC(=O)N[C@H](Cc1ccc2ccccc2c1)C(=O)N[C@H](Cc1ccc(Cl)cc1)C(=O)N[C@H](Cc1cccnc1)C(=O)N[C@@H](CO)C(=O)N[C@@H](CCCCNC(=O)c1ccccn1)C(=O)N[C@H](CCCCNC(=O)c1nccnc1N)C(=O)N[C@@H](CC(C)C)C(=O)N[C@@H](CCCN=C(N)N)C(=O)N1CCC[C@H]1C(=O)N[C@H](C)C(=O)O` was tested, and the “Number of rats ovulated” value [5] was 6.
`CC(=O)N[C@H](Cc1ccc2ccccc2c1)C(=O)N[C@H](Cc1ccc(Cl)cc1)C(=O)N[C@H](Cc1cccnc1)C(=O)N[C@@H](CO)C(=O)N[C@@H](CCCCNC(=O)c1cccc(N)n1)C(=O)N[C@H](CCCCNC(=O)c1cccc(N)n1)C(=O)N[C@@H](CC(C)C)C(=O)N[C@@H](CCCN=C(N)N)C(=O)N1CCC[C@H]1C(=O)N[C@H](C)C(=O)O` was tested, and the “Number of rats ovulated” value [5] was 6.
With `CC(=O)N[C@H](Cc1ccc2ccccc2c1)C(=O)N[C@H](Cc1ccc(Cl)cc1)C(=O)N[C@H](Cc1cccnc1)C(=O)N[C@@H](CO)C(=O)N[C@@H](CCCCNC(=O)c1nccnc1N)C(=O)N[C@H](CCCCNC(=O)c1nccnc1N)C(=O)N[C@@H](CC(C)C)C(=O)N[C@@H](CCCN=C(N)N)C(=O)N1CCC[C@H]1C(=O)N[C@H](C)C(=O)O` the Ratio [8] was 4.
`CC(=O)N[C@H](Cc1ccc2ccccc2c1)C(=O)N[C@H](Cc1ccc(Cl)cc1)C(=O)N[C@H](Cc1cccnc1)C(=O)N[C@@H](CO)C(=O)N[C@@H](CCCCNC(=O)c1ccccn1)C(=O)N[C@H](CCCCNC(=O)c1nccnc1N)C(=O)N[C@@H](CC(C)C)C(=O)N[C@@H](CCCCNC(C)C)C(=O)N1CCC[C@H]1C(=O)N[C@H](C)C(=O)O` gave a Ratio [12] of 1, a Ratio [13] of 3 and an ED50 [3] of 100 µg/mL (≈ 62.2 µM).
`CC(=O)N[C@H](Cc1ccc2ccccc2c1)C(=O)N[C@H](Cc1ccc(Cl)cc1)C(=O)N[C@H](Cc1cccnc1)C(=O)N[C@@H](CO)C(=O)N[C@@H](CCCCNC(=O)c1ccccn1)C(=O)N[C@H](CCCCNC(=O)c1cnccn1)C(=O)N[C@@H](CC(C)C)C(=O)N[C@@H](CCCCN)C(=O)N1CCC[C@H]1C(=O)N[C@H](C)C(=O)O` was tested, and the “Number of rats ovulated” value [5] was 6.
With `CC(=O)N[C@H](Cc1ccc2ccccc2c1)C(=O)N[C@H](Cc1ccc(Cl)cc1)C(=O)N[C@H](Cc1cccnc1)C(=O)N[C@@H](CO)C(=O)N[C@@H](CCCNC(=O)c1cnccn1)C(=O)N[C@H](CCCCNC(=O)c1ccc(N)nc1)C(=O)N[C@@H](CC(C)C)C(=O)N[C@@H](CCCN=C(N)N)C(=O)N1CCC[C@H]1C(=O)N[C@H](C)C(=O)O` the “Number of rats ovulated” value [5] was 6.
`CC(=O)N[C@H](Cc1ccc2ccccc2c1)C(=O)N[C@H](Cc1ccc(Cl)cc1)C(=O)N[C@H](Cc1cccnc1)C(=O)N[C@@H](CO)C(=O)N[C@@H](CCCCNC(=O)c1cnccn1)C(=O)N[C@H](CCCCNC(=O)c1cnccn1)C(=O)N[C@@H](CC(C)C)C(=O)N[C@@H](CCCCN)C(=O)N1CCC[C@H]1C(=O)N[C@H](C)C(=O)O` showed a Ratio [14] of 5.
`CC(C)C[C@H](NC(=O)[C@@H](CCCCNC(=O)c1ccc(N)nc1)NC(=O)[C@H](Cc1ccc(O)cc1)NC(=O)[C@H](CO)NC(=O)[C@@H](Cc1cccnc1)NC(=O)[C@@H](Cc1ccc(Cl)cc1)NC(=O)[C@H](N)Cc1ccc2ccccc2c1)C(=O)N[C@@H](CCCN=C(N)N)C(=O)N1CCC[C@H]1C(=O)N[C@H](C)C(=O)O` gave a Ratio [15] of 3.
